Where a name gives a salt, the structure may show the parent alone.
Target: ALK1 kinase (Homo sapiens (Human), UniProt P37023)
Test: In vitro enzyme inhibition using scintillation of incorporated radio label (flashplate assay)
Assay type: biochemical
Conditions: biotinylated α-casein, 33P-ATP, 500 nM ATP
Experimental: B-1a. In Vitro Enzyme Inhibition Using Scintillation of Incorporated Radio Label (Flashplate Assay)
Test compounds diluted in DMSO are mixed with a suitable substrate/co-substrate (here: biotinylated α-casein and ^33P-ATP) in a corresponding assay buffer. Addition of the enzyme of interest (here: ALK1 kinase) starts the enzyme reaction. The enzyme-catalyzed incorporation of radio label into the substrate is measured via scintillation. Incorporated radio label is separated from free radio label via specific binding of the biotinylated substrate to strepavidin-coated microtiter plates (flashplates) and concomitant washing steps. The scintillation signal intensity (counts per minutes, cpm) is proportional to the enzyme activity. Enzyme inhibition results in a decreased signal intensity. IC50 values of the test compounds are determined by cpm-versus-[I] plots.
Reaction buffer contains 50 mM Tris pH 8.0 (Sigma), 1 mM MnCl2 (Sigma), 0.01% Nonidet P40 (Fluka), 0.5× Complete EDTA-free protease inhibitors (Roche; contains a mixture of several protease inhibitors for the inhibition of serine and cysteine (but not metallo-) proteases; 1 tablet contains protease inhibitors sufficient for a 50 ml cell extract; the concentration used in this assay corresponds to 1 tablet in 100 ml).
• 1.) Stop solution: Dulbecco's PBS (PAA, Pasching, Austria), 25 mM EDTA (Sigma), 25 μM ATP (Roche), 0.05% Triton X-100 (Sigma); • 2.) Saturation buffer: Dulbecco's PBS (PAA, Pasching, Austria), 100 μM ATP (Roche), 0.2% Triton X-100 (Sigma); • 3.) Wash buffer: Dulbecco's PBS (PAA, Pasching, Austria). Enzyme Solution:
ALK1 (Invitrogen, Paisley, United Kingdom) stock solution (35.7 ng/μl) is diluted to 4 ng/μl; final concentration in the reaction is 1 ng/μl.
Dephosphorylated α-casein (Sigma) is biotinylated according to the manufacturer's protocol (Pierce, Bonn, Germany) resulting in a stock solution of 61.6 μM. Briefly, EZ-Link® Biotin reagent (sulfosuccinimidyl-6-(biotinamido)hexanoate; Pierce, Bonn, Germany) is added in equal molarity to α-casein and incubated on ice for 2 h. Afterwards, the biotin reagent is removed by dialysis (2×2 h and overnight).
A 100 mM solution of cold (unlabelled) ATP (Roche) is diluted 1:100 before each test. For the substrate mix, α-casein is diluted to 2.22 μM resulting in a final concentration of 1 μM α-casein in the reaction. Additionally, cold ATP is added to give a 1.11 μM solution which results in a final concentration of 500 nM in the reaction.
Radioactive ATP Solution:
The stock solution (9.25 MBq/25 μl of ^33P-ATP; Perkin Elmer, Rodgau, Germany) is diluted to 651.2 Bq/μl.
Compounds are dissolved in 100% DMSO (10 mM stock solution) and diluted to 2 mM. Further dilutions are made stepwise 1:3.16 in DMSO.
A volume of 9 μl substrate solution is provided into each well of a 384 well microliter plate (Greiner Bio-One, Solingen, Germany), 1 μl compound solution and 5 μl of the radioactive ATP solution are added. Enzyme reaction starts with addition of 5 μl of enzyme solution. The mixture is incubated for 60 minutes at room temperature and then stopped by addition of 10 μl stop solution. The 384 well microliter flashplates (Perkin Elmer, Rodgau, Germany) are saturated with 50 μl saturation buffer per well for at least 60 minutes. Subsequently, a volume of 20 μl is discarded and replaced with 20 μl of the stopped ALK1 reaction mixture. Binding of biotinylated substrate to the flashplate is allowed for by overnight incubation at room temperature. Bound substrate is separated from unbound components through repeated washing steps (3×50 μl washing buffer per well). Finally, 50 μl washing buffer is added, and the scintillation signal (cpm) is measured in a suitable counter (Perkin Elmer, Rodgau, Germany).

Sequence of ALK1 kinase (P37023 22-503): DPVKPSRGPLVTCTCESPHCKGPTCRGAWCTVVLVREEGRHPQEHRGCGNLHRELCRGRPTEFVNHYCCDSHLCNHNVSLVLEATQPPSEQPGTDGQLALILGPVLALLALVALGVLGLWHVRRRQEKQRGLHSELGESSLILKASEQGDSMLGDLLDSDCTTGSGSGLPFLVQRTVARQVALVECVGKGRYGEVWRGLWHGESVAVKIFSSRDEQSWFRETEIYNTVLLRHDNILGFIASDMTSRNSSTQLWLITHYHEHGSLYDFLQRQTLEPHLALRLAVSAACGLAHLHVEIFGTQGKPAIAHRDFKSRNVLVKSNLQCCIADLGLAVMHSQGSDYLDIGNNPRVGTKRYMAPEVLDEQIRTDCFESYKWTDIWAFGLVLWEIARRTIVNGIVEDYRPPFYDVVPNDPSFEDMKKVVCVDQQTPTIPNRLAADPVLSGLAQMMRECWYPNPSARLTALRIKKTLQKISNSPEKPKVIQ

Row | SMILES | IC50 [nM]
1 | Nc1ncnn2c(CCCCO)cc(-c3ccc(CO)cc3)c12 [Example 4, 4-{4-Amino-5-[4-(hydroxymethyl)phenyl]pyrrolo[2,1-f][1,2,4]triazin-7-yl}butan-1-ol] | 1
2 | Nc1ncnn2c(C3CCNCC3)cc(-c3ccc(CO)cc3)c12 [Example 10, {4-[4-Amino-7-(piperidin-4-yl)pyrrolo[2,1-f][1,2,4]triazin-5-yl]phenyl}methanol] | 8
3 | Nc1ncnn2c(CN3CCC(O)C3)cc(-c3cc(F)c(CO)c(F)c3)c12 (stereo not drawn) [Example 26, 1-({4-Amino-5-[3,5-difluoro-4-(hydroxymethyl)phenyl]pyrrolo[2,1-f][1,2,4]triazin-7-yl}methyl)pyrrolidin-3-ol] | 30
4 | Cc1nc(-c2cc(-c3cc(F)c(CO)c(F)c3)c3c(N)ncnn23)cs1 [Example 14, {4-[4-Amino-7-(2-methyl-1,3-thiazol-4-yl)pyrrolo[2,1-f][1,2,4]triazin-5-yl]-2,6-difluorophenyl}-methanol] | 5.3
5 | COc1cc(-c2cc([C@H]3CC[C@H](O)CC3)n3ncnc(N)c23)cc(F)c1CO [Example 29, trans-4-{4-Amino-5-[3-fluoro-4-(hydroxymethyl)-5-methoxyphenyl]pyrrolo[2,1-f][1,2,4]triazin-7-yl}cyclohexanol] | 1
6 | Nc1ncnn2c(C3(O)CCCNC3)cc(-c3cc(F)c(CO)c(F)c3)c12 (racemic) [Example 9, rac-3-{4-Amino-5-[3,5-difluoro-4-(hydroxymethyl)phenyl]pyrrolo[2,1-f][1,2,4]triazin-7-yl}-piperidin-3-ol] | 5.7
7 | Cc1cc(-c2cc(CN3CCOCC3)n3ncnc(N)c23)ccc1CO [Example 23, {4-[4-Amino-7-(morpholin-4-ylmethyl)pyrrolo[2,1-f][1,2,4]triazin-5-yl]-2-methylphenyl}methanol] | 30
8 | CC(O)c1cc(-c2cc(F)c(CO)c(F)c2)c2c(N)ncnn12 (racemic) [Example 44, rac-1-{4-Amino-5-[3,5-difluoro-4-(hydroxymethyl)phenyl]pyrrolo[2,1-f][1,2,4]triazin-7-yl}-ethanol] | 3.8
9 | CCc1nc(-c2cc(-c3cc(F)c(CO)c(F)c3)c3c(N)ncnn23)cs1 [Example 16, {4-[4-Amino-7-(2-ethyl-1,3-thiazol-4-yl)pyrrolo[2,1-f][1,2,4]triazin-5-yl]-2,6-difluorophenyl}-methanol] | 2.6
10 | Nc1ncnn2c(C(O)C3CCOCC3)cc(-c3cc(F)c(CO)c(F)c3)c12 (stereo not drawn) [Example 6, {4-Amino-5-[3,5-difluoro-4-(hydroxymethyl)phenyl]pyrrolo[2,1-f][1,2,4]triazin-7-yl}(tetrahydro-2H-pyran-4-yl)methanol] | 40
11 | Nc1ncnn2c(CN3CCC(O)CC3)cc(-c3cc(F)c(CO)c(F)c3)c12 [Example 25, 1-({4-Amino-5-[3,5-difluoro-4-(hydroxymethyl)phenyl]pyrrolo[2,1-f][1,2,4]triazin-7-yl}methyl)piperidin-4-ol] | 65
12 | Nc1ncnn2c(CN3CCNCC3)cc(-c3ccc(CO)cc3)c12 [Example 18, {4-[4-Amino-7-(piperazin-1-ylmethyl)pyrrolo[2,1-f][1,2,4]triazin-5-yl]phenyl}methanol] | 80
13 | Nc1ncnn2c(CN3CCCC(O)C3)cc(-c3cc(F)c(CO)c(F)c3)c12 (stereo not drawn) [Example 27, 1-({4-Amino-5-[3,5-difluoro-4-(hydroxymethyl)phenyl}pyrrolo[2,1-f][1,2,4]triazin-7-yl]methyl)piperidin-3-ol] | 70
14 | Nc1ncnn2c(C3(O)CCCCC3)cc(-c3cc(F)c(CO)c(F)c3)c12 [Example 33, 1-{4-Amino-5-[3,5-difluoro-4-(hydroxymethyl)phenyl]pyrrolo[2,1-f][1,2,4]triazin-7-yl}cyclohexanol trifluoroacetate] | 15
15 | Cc1cc(-c2cc(C3CCNC3)n3ncnc(N)c23)cc(F)c1CO (stereo not drawn) [Example 32, {4-[4-Amino-7-(pyrrolidin-3-yl)pyrrolo[2,1-f][1,2,4]triazin-5-yl]-2-fluoro-6-methylphenyl}-methanol] | 4

Source: US9040691B2, “Hydroxymethylaryl-substituted pyrrolotriazines as ALK1 inhibitors” (BAYER INTELLECTUAL PROPERTY GMBH, priority 2011, dated 2015)
